Measured values from patent US20260083865A1, “PROSTATE SPECIFIC MEMBRANE ANTIGEN (PSMA) LIGANDS AND USE THEREOF” (priority 2022, published 2026).
Where two headings read alike, the source gives them in different places. Numbered stars: 1 amine (or outer) side, 2 acyl side, 3 side chain; on linkers, the order of the positions; unused ones are H or OH. Bridge positions count the residues as written; N and C are the ends. Square brackets hold non-standard residues; d marks the D form. Side chains are listed from the residue outwards. Peptide text beside a SMILES is read from it. * marks the point of attachment. TtdsdLys(DOTA)NH2 = NC(=O)[C@@H](CCCCNC(=O)CN1CCN(CC(=O)O)CCN(CC(=O)O)CCN(CC(=O)O)CC1)NC(=O)CCC(=O)NCCCOCCOCCOCCCN*; X7 = O=C(O)CN1CCN(CC(=O)O)CCN(CC(=O)NC2CCN(CC(=O)*)CC2)CCN(CC(=O)O)CC1; X3 = O=C(O)CN1CCN(CC(=O)O)CCN(CC(=O)NCCCOCCOCCOCCCN*)CCN(CC(=O)O)CC1; DOTA = O=C(O)CN1CCN(CC(=O)O)CCN(CC(=O)*)CCN(CC(=O)O)CC1; Phe(4-Cl) = N[C@@H](Cc1ccc(Cl)cc1)C(=O)O; X4 = O=C(CN1CCC(N[*:1])CC1)[*:2]; X1 = O=C(CC1CCN([*:1])CC1)[*:2]; Suc = O=C(CCC(=O)[*:2])[*:1]; Tle = CC(C)(C)[C@H](N)C(=O)O; 4Amb = NCc1ccc(C(=O)O)cc1; Isovaleryl = CC(C)CC(=O)*; αMeS = C[C@](N)(CO)C(=O)O; 4Abz = Nc1ccc(C(=O)O)cc1; Nle = CCCC[C@H](N)C(=O)O; Orn = NCCC[C@H](N)C(=O)O; Aib = CC(C)(N)C(=O)O; βAla = NCCC(=O)O

Tests used:
[1] = biological target: T1, PSMA-expressing C4-2 cells (Homo sapiens, UniProt Q04609); experiment: FACS binding assay (competition with 50 nM PSM-0183); conditions: for IC50: read-out: pIC50 [C4-2] CAT (converted)
T1 construct: PSMA-expressing C4-2 cells (ATCC, Cat. No. CRL-3314) were cultured in RPMI-1640; host or cells: C4-2 cells
T1 sequence (Q04609 whole entry): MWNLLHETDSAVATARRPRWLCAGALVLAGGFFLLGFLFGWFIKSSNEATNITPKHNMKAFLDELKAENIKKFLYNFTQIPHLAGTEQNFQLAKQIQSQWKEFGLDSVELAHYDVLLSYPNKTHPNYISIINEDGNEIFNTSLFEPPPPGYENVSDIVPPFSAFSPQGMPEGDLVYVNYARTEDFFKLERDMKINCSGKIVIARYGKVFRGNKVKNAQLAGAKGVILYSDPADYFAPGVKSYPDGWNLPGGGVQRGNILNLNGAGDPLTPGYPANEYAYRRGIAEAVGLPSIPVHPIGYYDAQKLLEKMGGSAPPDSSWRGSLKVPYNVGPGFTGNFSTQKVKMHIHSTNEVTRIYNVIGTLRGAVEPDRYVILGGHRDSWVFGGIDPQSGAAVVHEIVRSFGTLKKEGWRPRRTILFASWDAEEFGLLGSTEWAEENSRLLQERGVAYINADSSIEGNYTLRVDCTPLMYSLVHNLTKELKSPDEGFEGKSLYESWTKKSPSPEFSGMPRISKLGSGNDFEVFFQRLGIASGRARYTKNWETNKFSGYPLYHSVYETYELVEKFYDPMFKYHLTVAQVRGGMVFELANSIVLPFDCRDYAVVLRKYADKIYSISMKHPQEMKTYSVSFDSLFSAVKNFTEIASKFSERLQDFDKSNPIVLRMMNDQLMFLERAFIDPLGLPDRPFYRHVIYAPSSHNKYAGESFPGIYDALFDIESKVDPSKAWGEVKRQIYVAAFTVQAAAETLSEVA
How it was run: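 Competition format: fluorescent tracer PSM-0183 (50 nM) displaced from PSMA on C4-2 cells by a test compound titration over 1 h at 4 °C. Bound tracer was quantified as flow-cytometric AF488 median fluorescence after washing. Four-parameter logistic fits of MFI data gave IC50 and pIC50.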

[2] = biological target: T2, Fc-fusion protein of human PSMA (hPSMA-Fc) (Homo sapiens, UniProt Q04609); experiment: Surface plasmon resonance assay (Biacore T200, single cycle kinetic); format: binding; conditions: hPSMA-Fc, 25° C.; for Kd: read-out: pKD CAT (converted)
T2 construct: purchased Acro Biosystems PSA-H5264
T2 sequence (Q04609 44-750 limits assumed): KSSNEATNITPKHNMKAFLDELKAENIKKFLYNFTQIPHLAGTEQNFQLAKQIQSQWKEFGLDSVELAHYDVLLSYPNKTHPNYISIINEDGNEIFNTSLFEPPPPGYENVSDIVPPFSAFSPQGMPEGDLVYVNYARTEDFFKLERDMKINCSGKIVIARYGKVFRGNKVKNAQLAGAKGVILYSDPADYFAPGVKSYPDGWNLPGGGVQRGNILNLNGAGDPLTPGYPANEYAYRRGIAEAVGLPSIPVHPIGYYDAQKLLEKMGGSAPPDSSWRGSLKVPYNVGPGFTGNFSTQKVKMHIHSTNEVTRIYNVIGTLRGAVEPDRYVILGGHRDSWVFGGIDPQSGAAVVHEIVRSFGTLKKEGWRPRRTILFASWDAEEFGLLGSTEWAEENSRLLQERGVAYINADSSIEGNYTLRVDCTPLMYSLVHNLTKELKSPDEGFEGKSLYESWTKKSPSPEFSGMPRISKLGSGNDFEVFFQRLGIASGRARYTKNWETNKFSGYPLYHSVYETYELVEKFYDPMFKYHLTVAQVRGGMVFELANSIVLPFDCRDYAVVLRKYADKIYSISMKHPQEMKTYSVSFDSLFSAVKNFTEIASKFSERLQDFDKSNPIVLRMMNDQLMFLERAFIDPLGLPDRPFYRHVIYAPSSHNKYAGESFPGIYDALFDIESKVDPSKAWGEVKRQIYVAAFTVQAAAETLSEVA
How it was run: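 KD, expressed as pKD, came from 1:1 Langmuir fits of reference- and buffer-blank-subtracted SPR data. The runs were single-cycle kinetics at 25° C in HBST/0.1% DMSO over human PSMA-Fc, captured to ~1000 RU on a peptide-coated CM5 surface and regenerated with 10 mM glycine pH 1.5.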

[3] = FACS binding, C4-2 cells, competition with 50 nM PSM-0183, category
[4] = SPR, single cycle kinetic, category
[5] = pIC50 category of FACS binding, C4-2 cells
[6] = pKD category for PSMA SPR activity assay
[7] = FACS binding, PSMA-expressing C4-2 cells, pIC50 category

Molecule	IC50 [1, 3]	Kd [2, 4]	IC50 [1, 5]	Kd [2, 6]	further results
C[C@@H](O)[C@H](NC(=O)[C@@H](NC(=O)[C@@H]1CSSC[C@H](NC(=O)[C@H](Cc2ccc(Cl)cc2)NC(=O)C(C)(C)NC(=O)[C@@H](NC(=O)CC2CCN(C(=O)CN3CCN(CC(=O)O)CCN(CC(=O)O)CCN(CC(=O)O)CC3)CC2)[C@@H](C)O)C(=O)N[C@@H](CCCCN)C(=O)N[C@@H](CCCN)C(=O)NC(C)(C)C(=O)N[C@@H](CC(N)=O)C(=O)N1)C(C)(C)C)C(N)=O [PSM-0245, DOTA-Cmp-Thr-Aib-Pcf-[Cys-Lys-Orn-Aib-Asn-Cys]-Tle-Thr-NH2] ({DOTA}-[X1]T[Aib][Phe(4-Cl)]CK[Orn][Aib]NC[Tle]T-NH2; disulfide 5-10)	< 200 nM	< 12.6 nM			
C[C@@H](O)[C@H](NC(=O)[C@@H](NC(=O)[C@@H]1CSSC[C@H](NC(=O)[C@H](Cc2ccc(Cl)cc2)NC(=O)C(C)(C)NC(=O)[C@@H](NC(=O)CC2CCN(C(=O)CN3CCN(CC(=O)O)CCN(CC(=O)O)CCN(CC(=O)O)CC3)CC2)[C@@H](C)O)C(=O)N[C@@H](CCCCN)C(=O)N[C@@H](CCCNC(=N)N)C(=O)N[C@@](C)(CO)C(=O)N[C@@H](CC(N)=O)C(=O)N1)C(C)(C)C)C(N)=O [PSM-0382, DOTA-Cmp-Thr-Aib-Pcf-[Cys-Lys-Arg-Ams-Asn-Cys]-Tle-Thr-NH2] ({DOTA}-[X1]T[Aib][Phe(4-Cl)]CKR[αMeS]NC[Tle]T-NH2; disulfide 5-10)			< 200 nM	< 12.6 nM	
CC(=O)N[C@H](C(=O)NC(C)(C)C(=O)N[C@@H](Cc1ccccc1)C(=O)N[C@H]1CSSC[C@@H](C(=O)N[C@H](C(=O)N[C@H](C(=O)NCCCOCCOCCOCCCNC(=O)CCC(=O)N[C@H](CCCCNC(=O)CN2CCN(CC(=O)O)CCN(CC(=O)O)CCN(CC(=O)O)CC2)C(N)=O)[C@@H](C)O)C(C)(C)C)NC(=O)[C@H](CC(N)=O)NC(=O)C(C)(C)NC(=O)[C@H](CCC(N)=O)NC(=O)[C@H](CCCCN)NC1=O)[C@@H](C)O [PSM-0303, Ac-Thr-Aib-Phe-[Cys-Lys-Gln-Aib-Asn-Cys]-Tle-Thr-Ttds-lys(DOTA)-NH2] (Ac-T[Aib]FCKQ[Aib]NC[Tle]T-{TtdsdLys(DOTA)NH2}; disulfide 4-9)					IC50 [1, 7]: 200 to 1260 nM; Kd ([2]; PSMA SPR assay, pKD category): 12.6 to 126 nM
CC(=O)N[C@H](C(=O)NC(C)(C)C(=O)N[C@@H](Cc1ccccc1)C(=O)N[C@H]1CSSC[C@@H](C(=O)N[C@H](C(=O)N[C@H](C(N)=O)[C@@H](C)O)C(C)(C)C)NC(=O)[C@H](CC(N)=O)NC(=O)C(C)(C)NC(=O)[C@H](CCCNC(=N)N)NC(=O)[C@H](CCCCN)NC1=O)[C@@H](C)O [PSM-0178, Ac-Thr-Aib-Phe-[Cys-Lys-Arg-Aib-Asn-Cys]-Tle-Thr-NH2] (Ac-T[Aib]FCKR[Aib]NC[Tle]T-NH2; disulfide 4-9)	< 200 nM	< 12.6 nM			
CCCC[C@H](NC(=O)[C@@H]1CSSC[C@H](NC(=O)[C@H](Cc2ccccc2)NC(=O)[C@H](C)NC(=O)[C@@H](NC(C)=O)[C@@H](C)O)C(=O)N[C@@H](CCCCN)C(=O)N[C@@H](CCCNC(=N)N)C(=O)N[C@H](C)C(=O)N[C@@H](CC(N)=O)C(=O)N1)C(=O)N[C@H](C(=O)N[C@@H](CC(=O)O)C(N)=O)[C@@H](C)O [PSM-0474, Ac-Thr-Ala-Phe-[Cys-Lys-Arg-ala-Asn-Cys]-Nle-Thr-Asp-NH2]			1260 to 3160 nM	> 501 nM	
CCCC[C@H](NC(=O)[C@@H]1CSSC[C@H](NC(=O)[C@H](Cc2ccccc2)NC(=O)[C@H](C)NC(=O)[C@@H](NC(=O)CCC(=O)NCCCOCCOCCOCCCNC(=O)CN2CCN(CC(=O)O)CCN(CC(=O)O)CCN(CC(=O)O)CC2)[C@@H](C)O)C(=O)N[C@@H](CCCCN)C(=O)N[C@@H](CCCNC(=N)N)C(=O)N[C@@H](C)C(=O)N[C@@H](CC(N)=O)C(=O)N1)C(=O)N[C@H](C(=O)N[C@@H](CC(=O)O)C(N)=O)[C@@H](C)O [PSM-0504, DOTA-Ttds-Thr-Ala-Phe-[Cys-Lys-Arg-Ala-Asn-Cys]-Nle-Thr-Asp-NH2] ({X3-Suc}-TAFCKRANC[Nle]TD-NH2; disulfide 4-9)			200 to 1260 nM	12.6 to 126 nM	
C[C@@H]1NC(=O)[C@H](CCCNC(=N)N)NC(=O)[C@H](CCCCN)NC(=O)[C@@H](NC(=O)[C@H](Cc2ccccc2)NC(=O)[C@H](C)NC(=O)[C@@H](NC(=O)CCC(=O)NCCCOCCOCCOCCCNC(=O)CN2CCN(CC(=O)O)CCN(CC(=O)O)CCN(CC(=O)O)CC2)[C@@H](C)O)CSSC[C@@H](C(N)=O)NC(=O)[C@H](CC(N)=O)NC1=O [PSM-0201, DOTA-Ttds-Thr-Ala-Phe-[Cys-Lys-Arg-Ala-Asn-Cys]-NH2] ({X3-Suc}-TAFCKRANC-NH2; disulfide 4-9)	> 3160 nM	> 501 nM			
CC(=O)N[C@H](C(=O)NC(C)(C)C(=O)N[C@@H](Cc1ccccc1)C(=O)N[C@H]1CSSC[C@@H](C(=O)N[C@H](C(=O)N[C@H](C(=O)NC2CCN(CC(=O)N[C@H](CCCCNC(=O)CN3CCN(CC(=O)O)CCN(CC(=O)O)CCN(CC(=O)O)CC3)C(N)=O)CC2)[C@@H](C)O)C(C)(C)C)NC(=O)[C@H](CC(N)=O)NC(=O)C(C)(C)NC(=O)[C@H](CCCNC(=N)N)NC(=O)[C@H](CCCCN)NC1=O)[C@@H](C)O [PSM-0191, Ac-Thr-Aib-Phe-[Cys-Lys-Arg-Aib-Asn-Cys]-Tle-Thr-APAc-lys(DOTA)-NH2] (Ac-T[Aib]FCKR[Aib]NC[Tle]T[X4][dK](DOTA)-NH2; disulfide 4-9)	< 200 nM	< 12.6 nM			
nBuCAyl-Thr-Aib-Phe-[Cys-Lys-Arg-Aib-Asn-Cys]-Tle-Thr-Cmp-lys(InDOTA)-NH2 [PSM-0214]					pIC50 [C4-2] CAT [1, 3]: A (pIC50 values >6.7); pKD CAT [2, 4]: A (pKD values >7.9)
CC(C)(NC(=O)c1ccc(CNC(=O)CN2CCN(CC(=O)O)CCN(CC(=O)O)CCN(CC(=O)O)CC2)cc1)C(=O)N[C@@H](Cc1ccc(Cl)cc1)C(=O)N[C@H]1CSSC[C@@H](C(=O)N[C@H](C(=O)NCCC(N)=O)C(C)(C)C)NC(=O)[C@H](CC(N)=O)NC(=O)C(C)(C)NC(=O)[C@H](CCCNC(=N)N)NC(=O)[C@H](CCCCN)NC1=O [PSM-0432, DOTA-Pamb-Aib-Pcf-[Cys-Lys-Arg-Aib-Asn-Cys]-Tle-Bal-NH2] ({DOTA-4Amb}-[Aib][Phe(4-Cl)]CKR[Aib]NC[Tle][βAla]-NH2; disulfide 3-8)			< 200 nM	< 12.6 nM	
CC(=O)N[C@H](C(=O)NC(C)(C)C(=O)N[C@@H](Cc1ccccc1)C(=O)N[C@H]1CSSC[C@@H](C(=O)N[C@H](C(=O)N[C@H](C(N)=O)[C@@H](C)O)C(C)(C)C)NC(=O)[C@H](CC(N)=O)NC(=O)[C@H](CCCCNC(=O)c2ccc(NC(=O)CN3CCN(CC(=O)O)CCN(CC(=O)O)CCN(CC(=O)O)CC3)cc2)NC(=O)[C@H](CCCNC(=N)N)NC(=O)[C@H](CCCCN)NC1=O)[C@@H](C)O [PSM-0211, Ac-Thr-Aib-Phe-[Cys-Lys-Arg-Lys(DOTA-Pab)-Asn-Cys]-Tle-Thr-NH2] (Ac-T[Aib]FCKRK([4Abz-DOTA])NC[Tle]T-NH2; disulfide 4-9)	< 200 nM	< 12.6 nM			
CC(=O)N[C@@H](Cc1ccccc1)C(=O)N[C@H]1CSSC[C@@H](C(=O)N[C@@H](CC(C)C)C(=O)N[C@H](C(=O)N[C@@H](CC(=O)O)C(=O)NCCCOCCOCCOCCCNC(=O)CCC(=O)N[C@H](CCCCNC(=O)CN2CCN(CC(=O)O)CCN(CC(=O)O)CCN(CC(=O)O)CC2)C(N)=O)[C@@H](C)O)NC(=O)[C@H](CC(N)=O)NC(=O)[C@H](C)NC(=O)[C@H](CCCNC(=N)N)NC(=O)[C@H](CCCCN)NC1=O [PSM-0323, Ac-Phe-[Cys-Lys-Arg-Ala-Asn-Cys]-Lou-Thr-Asp-Ttds-lys(DOTA)-NH2] (Ac-FCKRANCLTD-{TtdsdLys(DOTA)NH2}; disulfide 2-7)					IC50 [1, 7]: > 3160 nM; Kd ([2]; PSMA SPR assay, pKD category): > 501 nM
CCCC[C@H](NC(=O)[C@@H]1CSSC[C@H](NC(=O)[C@H](Cc2ccccc2)NC(=O)[C@H](C)NC(=O)[C@@H](NC(C)=O)[C@@H](C)O)C(=O)N[C@@H](CCCCN)C(=O)N[C@@H](CCCNC(=N)N)C(=O)N[C@@H](C)C(=O)N[C@@H](CC(N)=O)C(=O)N1)C(=O)N[C@H](C(=O)N[C@@H](CC(=O)O)C(=O)NCCCOCCOCCOCCCNC(=O)CCC(=O)N[C@H](CCCCNC(=O)CN1CCN(CC(=O)O)CCN(CC(=O)O)CCN(CC(=O)O)CC1)C(N)=O)[C@@H](C)O [PSM-0533, Ac-Thr-Ala-Phe-[Cys-Lys-Arg-Ala-Asn-Cys]-Nle-Thr-Asp-Ttds-lys(DOTA)-NH2] (Ac-TAFCKRANC[Nle]TD-{TtdsdLys(DOTA)NH2}; disulfide 4-9)			200 to 1260 nM	12.6 to 126 nM	
CC(C)CC(=O)NC(C)(C)C(=O)N[C@@H](Cc1ccc(Cl)cc1)C(=O)N[C@H]1CSSC[C@@H](C(=O)N[C@H](C(=O)N[C@H](C(N)=O)[C@@H](C)O)C(C)(C)C)NC(=O)[C@H](CC(N)=O)NC(=O)[C@H](CCCCNC(=O)CN2CCC(NC(=O)CN3CCN(CC(=O)O)CCN(CC(=O)O)CCN(CC(=O)O)CC3)CC2)NC(=O)[C@H](CCCNC(=N)N)NC(=O)[C@H](CCCCN)NC1=O [PSM-0353, Iva-Aib-Pcf-[Cys-Lys-Arg-Lys(DOTA-APAc)-Asn-Cys]-Tle-Thr-NH2] (Isovaleryl-[Aib][Phe(4-Cl)]CKRK(X7)NC[Tle]T-NH2; disulfide 3-8)					IC50 [1, 7]: < 200 nM; Kd ([2]; PSMA SPR assay, pKD category): < 12.6 nM
